According to PubChem BioAssay AID256 (DTP/NCI, 2004):
Values joined by “and” are separate entries in the source; they are usually repeats but may differ in a detail not shown here. Identical values can stand only once. Toxic doses and inconclusive results are not listed. Rule for the calls: active = survival T/C of 150% or more; inactive = T/C below 125% in these data.

Tested on: CD2F1 mice, L1210 leukemia ip, survival T/C
Assay: NCI In Vivo Anticancer Drug Screen. Data for tumor model L1210 Leukemia (intraperitoneal) in CD2F1 (CDF1) mice
Conditions: higher = longer survival
Outline: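 In this screen, transplantable tumors were grown in mice given either the compound or its vehicle. Results were expressed as the treated measurement relative to the control measurement.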

[1] = endpoint: mean survival time, dose: 6.25 mg/kg/injection, schedule: Q01DX009 (ip), vehicle: saline with Tween-80
[2] = endpoint: mean survival time, dose: 12.5 mg/kg/injection, schedule: Q01DX009 (ip), vehicle: saline with Tween-80
[3] = endpoint: mean survival time, dose: 25.0 mg/kg/injection, schedule: Q01DX009 (ip), vehicle: saline with Tween-80
[4] = endpoint: mean survival time, dose: 100.0 mg/kg/injection, schedule: Q01DX001 (ip), vehicle: saline with Tween-80
[5] = endpoint: mean survival time, dose: 200.0 mg/kg/injection, schedule: Q01DX001 (ip), vehicle: saline with Tween-80
[6] = endpoint: mean survival time, dose: 400.0 mg/kg/injection, schedule: Q01DX001 (ip), vehicle: saline with Tween-80
[7] = endpoint: mean survival time, dose: 100.0 mg/kg/injection, schedule: Q04DX003 (ip), vehicle: Klucel (hydroxypropylcellulose) (HPC)
[8] = endpoint: mean survival time, dose: 200.0 mg/kg/injection, schedule: Q04DX003 (ip), vehicle: Klucel (hydroxypropylcellulose) (HPC)
[9] = endpoint: mean survival time, dose: 400.0 mg/kg/injection, schedule: Q04DX003 (ip), vehicle: Klucel (hydroxypropylcellulose) (HPC)
[10] = endpoint: mean survival time, dose: 100.0 mg/kg/injection, schedule: Q01DX001 (ip), vehicle: saline
[11] = endpoint: mean survival time, dose: 100.0 mg/kg/injection, schedule: Q04DX003 (ip), vehicle: saline
[12] = endpoint: mean survival time, dose: 200.0 mg/kg/injection, schedule: Q04DX003 (ip), vehicle: saline
[13] = endpoint: mean survival time, dose: 400.0 mg/kg/injection, schedule: Q04DX003 (ip), vehicle: saline
[14] = endpoint: mean survival time, dose: 100.0 mg/kg/injection, schedule: Q04DX003 (ip), vehicle: saline with Tween-80
[15] = endpoint: mean survival time, dose: 200.0 mg/kg/injection, schedule: Q04DX003 (ip), vehicle: saline with Tween-80
[16] = endpoint: mean survival time, dose: 400.0 mg/kg/injection, schedule: Q04DX003 (ip), vehicle: saline with Tween-80
[17] = endpoint: mean survival time, dose: 100.0 mg/kg/injection, schedule: Q01DX009 (ip), vehicle: saline
[18] = endpoint: mean survival time, dose: 200.0 mg/kg/injection, schedule: Q01DX009 (ip), vehicle: saline
[19] = endpoint: mean survival time, dose: 50.0 mg/kg/injection, schedule: Q01DX009 (ip), vehicle: saline with Tween-80
[20] = endpoint: mean survival time, dose: 100.0 mg/kg/injection, schedule: Q01DX009 (ip), vehicle: saline with Tween-80
[21] = endpoint: mean survival time, dose: 400.0 mg/kg/injection, schedule: Q01DX009 (ip), vehicle: saline with Tween-80
[22] = endpoint: mean survival time, dose: 200.0 mg/kg/injection, schedule: Q01DX009 (ip), vehicle: saline with Tween-80
[23] = endpoint: mean survival time, dose: 75.0 mg/kg/injection, schedule: Q01DX001 (ip), vehicle: saline
[24] = endpoint: mean survival time, dose: 150.0 mg/kg/injection, schedule: Q01DX001 (ip), vehicle: saline
[25] = endpoint: mean survival time, dose: 200.0 mg/kg/injection, schedule: Q01DX001 (ip), vehicle: saline
[26] = endpoint: mean survival time, dose: 400.0 mg/kg/injection, schedule: Q01DX001 (ip), vehicle: saline

Measured: T/C

COC1=C(OC)C(=O)C(SCCCc2ccccc2)=CC1=O
inactive: [1] 98 % of control | [2] 102 % of control | [3] 93 % of control

CCOC(=O)CCCCSCCCCC(=O)OCC
inactive: [4] 100 % of control | [5] 105 % of control | [6] 101 % of control

CC(C(=O)O)C1(O)CCCCC1 (stereo not drawn)
inactive: endpoint: mean survival time, dose: 5.0 mg/kg/injection, schedule: Q01DX009 (ip), vehicle: saline with Tween-80 101 % of control | endpoint: mean survival time, dose: 10.0 mg/kg/injection, schedule: Q01DX009 (ip), vehicle: saline with Tween-80 95 % of control | endpoint: mean survival time, dose: 20.0 mg/kg/injection, schedule: Q01DX009 (ip), vehicle: saline with Tween-80 90 % of control

COc1ccc2ccccc2c1-c1c(OC)ccc2ccccc12
inactive: [4] 100 % of control | [5] 103 % of control | [6] 100 % of control

c1ccc(/C(=N\Nc2nc3ccccc3s2)c2ccncc2)cc1
inactive: [7] 92 % of control | [8] 89 % of control | [9] 92 % of control

Nc1cc(Cl)c(O)c(Cl)c1
inactive: [4] 92 % of control

O=C(O)C(S)C(S)C(=O)O.[As] (stereo not drawn)
inactive: endpoint: mean survival time, dose: 25.0 mg/kg/injection, schedule: Q04DX003 (ip), vehicle: saline 95 % of control | endpoint: mean survival time, dose: 50.0 mg/kg/injection, schedule: Q01DX001 (ip), vehicle: saline 89 % of control | endpoint: mean survival time, dose: 50.0 mg/kg/injection, schedule: Q04DX003 (ip), vehicle: saline 92 % of control | [10] 100 % of control | [11] 100 % of control

O=C1CC(NCCO)C(=O)NN1 (stereo not drawn)
inactive: [11] 101 % of control | [12] 101 % of control | [13] 104 % of control

CNC(=O)/C(=C\c1ccccc1Cl)NC(C)=O
inactive: [4] 97 % of control | [5] 93 % of control | [6] 93 % of control

CNC(=O)Nc1nc2ccccc2[nH]1
inactive: endpoint: mean survival time, dose: 50.0 mg/kg/injection, schedule: Q04DX003 (ip), vehicle: Klucel (hydroxypropylcellulose) (HPC) 101 % of control | [7] 102 % of control | [8] 104 % of control | [9] 102 % of control

Cc1cc(CC(O)(C(F)(F)Cl)C(F)(F)Cl)cc(C)n1
inactive: [14] 95 % of control | [15] 92 % of control | [16] 90 % of control

OCC1(O)OCC(O)C(F)C1O (stereo not drawn)
inactive: [17] 96 % of control | [11] 88 % of control | [18] 96 % of control | [12] 89 % of control | endpoint: mean survival time, dose: 400.0 mg/kg/injection, schedule: Q01DX009 (ip), vehicle: saline 94 % of control | [13] 91 % of control

Cc1c2cc(Cl)c3ccccc3c2c[n+]2ccccc12
inactive: endpoint: mean survival time, dose: 3.12 mg/kg/injection, schedule: Q01DX009 (ip), vehicle: saline with Tween-80 102 % of control and 106 % of control | [1] 100 % of control and 109 % of control | [2] 118 % of control and 102 % of control | [3] 114 % of control and 104 % of control | [19] 114 % of control and 110 % of control | [20] 124 % of control and 102 % of control

C(=N\N=C\C1CCc2ccccc21)/c1ccco1 (stereo not drawn)
inactive: [20] 88 % of control | [14] 94 % of control | [15] 93 % of control | [21] 88 % of control | [16] 87 % of control

CC(C)CCCC(C)C1CCC2C3CCC4CC(OCN5CCCCC5)CCC4(C)C3CCC12C (stereo not drawn)
inactive: [7] 95 % of control | [8] 92 % of control | [9] 92 % of control

Fc1c(F)c(F)c(Oc2c(F)c(F)c(Cl)c(F)c2F)c(F)c1F
inactive: [4] 91 % of control | [5] 91 % of control | [6] 88 % of control

COc1ccc(CCN2COc3ccc4ccc(=O)oc4c3C2)cc1OC
inactive: [20] 92 % of control | [22] 97 % of control | [21] 97 % of control

COC(C)C(O)(c1ccccc1)c1ccccc1 (stereo not drawn)
inactive: [19] 101 % of control | [20] 101 % of control | [22] 96 % of control

Cc1ccc(C2=NNc3n[nH]c(=S)n3N2)cc1
inactive: [20] 101 % of control | [14] 95 % of control | [22] 96 % of control | [15] 93 % of control | [16] 91 % of control

O=C1OC(=O)C2C1C1(c3ccccc3)OC2(c2ccccc2)c2ccccc21 (stereo not drawn)
inactive: endpoint: mean survival time, dose: 50.0 mg/kg/injection, schedule: Q01DX001 (ip), vehicle: saline with Tween-80 100 % of control | [4] 100 % of control | [5] 100 % of control

CCN(CC)S(=O)(=O)c1ccc(-c2cc(Cl)c3cc(S(=O)(=O)F)ccc3n2)cc1
inactive: [20] 107 % of control | [22] 87 % of control | [21] 91 % of control

CC(C)(C)[Si](OP(=O)(O[Si](c1ccccc1)(c1ccccc1)C(C)(C)C)N(CCCl)CCCl)(c1ccccc1)c1ccccc1
inactive: endpoint: mean survival time, dose: 15.63 mg/kg/injection, schedule: Q01DX001 (ip), vehicle: distilled water + Tween-80 101 % of control | endpoint: mean survival time, dose: 31.25 mg/kg/injection, schedule: Q01DX001 (ip), vehicle: distilled water + Tween-80 95 % of control | endpoint: mean survival time, dose: 62.5 mg/kg/injection, schedule: Q01DX001 (ip), vehicle: distilled water + Tween-80 101 % of control | endpoint: mean survival time, dose: 125.0 mg/kg/injection, schedule: Q01DX001 (ip), vehicle: distilled water + Tween-80 98 % of control | endpoint: mean survival time, dose: 250.0 mg/kg/injection, schedule: Q01DX001 (ip), vehicle: distilled water + Tween-80 92 % of control | endpoint: mean survival time, dose: 500.0 mg/kg/injection, schedule: Q01DX001 (ip), vehicle: distilled water + Tween-80 103 % of control

NC(=S)N/N=C/c1cc(=O)c2cc(Cl)ccc2o1
inactive: endpoint: median survival time, dose: 75.0 mg/kg/injection, schedule: Q01DX005 (ip), vehicle: DMSO 95 % of control | endpoint: median survival time, dose: 150.0 mg/kg/injection, schedule: Q01DX005 (ip), vehicle: DMSO 98 % of control | endpoint: median survival time, dose: 300.0 mg/kg/injection, schedule: Q01DX005 (ip), vehicle: DMSO 97 % of control | endpoint: median survival time, dose: 600.0 mg/kg/injection, schedule: Q01DX005 (ip), vehicle: DMSO 96 % of control | endpoint: median survival time, dose: 1200.0 mg/kg/injection, schedule: Q01DX005 (ip), vehicle: DMSO 104 % of control

CN(C)C(=O)c1ccc[n+](CC(=O)Nc2ccccc2)c1
inactive: [11] 103 % of control | [12] 101 % of control | [13] 103 % of control

NC(=O)c1ccc[n+](Cc2ccccc2)c1
inactive: [23] 98 % of control | [24] 96 % of control

CC1(C)CC(=O)N(Cc2ccccc2)N1C(=O)c1ccccc1
inactive: [4] 113 % of control | [5] 106 % of control | [6] 101 % of control

C=C1C(=O)O[C@@H]2C[C@@]3(C)CCC[C@H](C)C3=C[C@H]12
inactive: [17] 98 % of control | [18] 101 % of control

CN(c1ccccc1)c1ccccc1
inactive: [4] 94 % of control | [5] 89 % of control

CNC(=O)NCC1OC(n2cnc3c(=O)[nH]c(N)nc32)C(O)C1O (stereo not drawn)
inactive: [10] 103 % of control | [25] 97 % of control | [26] 103 % of control

O=[N+]([O-])c1ccc(OCCCBr)cc1
inactive: [14] 91 % of control | [15] 91 % of control | [16] 91 % of control

NC(CS(=O)(=O)O)c1ccccc1 (stereo not drawn)
inactive: [10] 110 % of control | [11] 96 % of control | [25] 110 % of control | [12] 98 % of control | [26] 110 % of control | [13] 97 % of control

CCCCCCCCCCCCC(=O)N1CCOCC1
inactive: [20] 105 % of control | [22] 94 % of control | [21] 103 % of control

O=CN(/C=C1\CC(OO)NC1=O)Cc1ccccc1 (stereo not drawn)
inactive: [23] 102 % of control | [24] 108 % of control

CN1CC[C@]23c4c5ccc(O)c4O[C@H]2C(=O)CC[C@H]3[C@H]1C5
inactive: endpoint: mean survival time, dose: 12.5 mg/kg/injection, schedule: Q01DX009 (ip), vehicle: saline 95 % of control | endpoint: mean survival time, dose: 25.0 mg/kg/injection, schedule: Q01DX009 (ip), vehicle: saline 102 % of control | endpoint: mean survival time, dose: 50.0 mg/kg/injection, schedule: Q01DX009 (ip), vehicle: saline 93 % of control

CCCCCCC(=O)[O][Hg][c]1ccccc1
inactive: endpoint: mean survival time, dose: 9.38 mg/kg/injection, schedule: Q01DX001 (ip), vehicle: saline 105 % of control | endpoint: mean survival time, dose: 18.75 mg/kg/injection, schedule: Q01DX001 (ip), vehicle: saline 100 % of control | endpoint: mean survival time, dose: 37.5 mg/kg/injection, schedule: Q01DX001 (ip), vehicle: saline 103 % of control

NNC(=O)CCCCC(=O)NN
inactive: [11] 97 % of control | [12] 100 % of control | [13] 99 % of control
